Laboratory results from patent US8637499B2, “Benzoxazepines as inhibitors of PI3K/mTOR and methods of their use and manufacture” (Exelixis, Inc., priority 2009, dated 2014).

How the values were obtained:
PI3Kα = PI3Kα (Homo sapiens, UniProt P42336); assay: PI3K Biochemical Assays (ATP consumption, luciferase-luciferin chemiluminescence); details: PI3Kα 1.5 nM, ATP 1 μM, PIP2 10 μM; percent of ATP consumed
How it was run: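 Kinase activity read as percent ATP consumed via luciferase-luciferin chemiluminescence. 1.5 nM enzyme, 1 μM ATP, 10 μM PIP2 in 50 mM Tris pH 7.5, 1 mM EGTA, 10 mM MgCl2, 1 mM DTT, 0.03% CHAPS; ~2 h at ambient temperature, ATP consumption kept to 40-60%.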

mTORC1 (mTOR/GbL/Raptor) = mTORC1 (mTOR/GbL/Raptor) (Homo sapiens, UniProt P42345); assay: mTOR/GbL/Raptor (mTORC1) ELISA Assay; type: biochemical; details: 0.2 nM mTORC1, 10 μM ATP, 50 nM NHis-tagged 4E-BP1; phosphorylation of 4E-BP1; read-out: IC50
How it was run: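 mTORC1 (0.2 nM) phosphorylated NHis-tagged 4E-BP1 (50 nM) with 10 μM ATP in 20 mM Hepes pH 7.2, 10 mM MnCl2, for 120 min at ambient temperature. Product was captured on Ni-chelate plates and detected with anti-phospho-4E-BP1 plus HRP secondary antibody by chemiluminescence.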

PI3Kα, sequence (P42336 whole entry): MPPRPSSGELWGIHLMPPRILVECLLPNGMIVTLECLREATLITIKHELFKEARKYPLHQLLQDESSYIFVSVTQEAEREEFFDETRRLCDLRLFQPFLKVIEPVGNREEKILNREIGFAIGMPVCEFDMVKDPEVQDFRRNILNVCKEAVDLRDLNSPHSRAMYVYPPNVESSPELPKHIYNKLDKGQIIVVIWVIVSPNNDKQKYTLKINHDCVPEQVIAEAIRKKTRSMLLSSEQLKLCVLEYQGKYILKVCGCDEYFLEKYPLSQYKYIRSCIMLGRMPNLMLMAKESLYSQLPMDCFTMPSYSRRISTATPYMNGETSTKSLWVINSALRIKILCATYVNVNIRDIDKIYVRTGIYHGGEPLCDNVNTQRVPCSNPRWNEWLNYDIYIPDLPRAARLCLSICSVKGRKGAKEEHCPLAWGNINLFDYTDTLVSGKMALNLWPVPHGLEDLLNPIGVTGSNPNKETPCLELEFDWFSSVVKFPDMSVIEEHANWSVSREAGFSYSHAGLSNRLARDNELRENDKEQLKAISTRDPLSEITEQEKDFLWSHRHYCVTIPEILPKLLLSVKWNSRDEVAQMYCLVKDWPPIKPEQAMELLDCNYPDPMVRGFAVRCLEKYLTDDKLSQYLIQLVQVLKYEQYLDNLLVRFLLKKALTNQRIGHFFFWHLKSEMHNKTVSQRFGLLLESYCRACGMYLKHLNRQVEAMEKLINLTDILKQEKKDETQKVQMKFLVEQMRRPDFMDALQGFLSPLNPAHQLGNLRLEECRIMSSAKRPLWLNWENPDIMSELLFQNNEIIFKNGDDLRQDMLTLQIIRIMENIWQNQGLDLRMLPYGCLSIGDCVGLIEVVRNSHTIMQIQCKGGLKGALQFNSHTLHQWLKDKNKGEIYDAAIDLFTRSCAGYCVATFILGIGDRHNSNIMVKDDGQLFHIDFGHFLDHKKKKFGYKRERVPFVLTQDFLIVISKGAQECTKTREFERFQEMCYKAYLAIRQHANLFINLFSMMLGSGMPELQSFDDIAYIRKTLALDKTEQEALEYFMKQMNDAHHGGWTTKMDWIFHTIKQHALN
PI3Kα, sequence (P27986 whole entry partner): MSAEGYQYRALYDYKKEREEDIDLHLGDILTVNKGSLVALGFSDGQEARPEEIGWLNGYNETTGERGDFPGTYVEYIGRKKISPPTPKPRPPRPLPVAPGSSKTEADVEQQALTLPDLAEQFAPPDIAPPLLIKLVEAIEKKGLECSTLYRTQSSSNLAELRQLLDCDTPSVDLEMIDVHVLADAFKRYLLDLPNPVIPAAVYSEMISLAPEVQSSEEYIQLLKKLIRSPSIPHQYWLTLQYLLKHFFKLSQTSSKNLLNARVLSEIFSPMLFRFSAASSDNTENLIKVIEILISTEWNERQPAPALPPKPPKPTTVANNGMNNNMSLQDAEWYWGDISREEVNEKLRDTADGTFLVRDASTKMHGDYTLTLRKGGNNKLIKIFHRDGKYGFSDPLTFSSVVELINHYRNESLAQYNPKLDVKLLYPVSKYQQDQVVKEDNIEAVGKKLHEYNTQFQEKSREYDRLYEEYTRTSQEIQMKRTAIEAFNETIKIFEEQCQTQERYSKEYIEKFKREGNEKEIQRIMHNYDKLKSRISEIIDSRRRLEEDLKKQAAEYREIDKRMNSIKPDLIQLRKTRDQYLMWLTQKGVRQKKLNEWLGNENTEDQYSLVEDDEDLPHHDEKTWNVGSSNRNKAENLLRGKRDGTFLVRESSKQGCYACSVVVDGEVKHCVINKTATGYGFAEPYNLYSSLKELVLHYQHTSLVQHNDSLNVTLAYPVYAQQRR

Row | IC50 (PI3Kα) [nM] | IC50 (mTORC1 (mTOR/GbL/Raptor)) [nM] | Compound
1 | ≤ 75 | ≤ 50 | Nc1nc2ncc(-c3ccc4c(c3)CN(C(=O)N3CCC(CF)CC3)CCO4)cc2[nH]1 [Compound 45, 6-(4-{[4-(fluoromethyl)piperidin-1-yl]carbonyl}-2,3,4,5-tetrahydro-1,4-benzoxazepin-7-yl)-1H-imidazo[4,5-b]pyridin-2-amine]
2 | 1000 to 3000 | 700 to 2600 | Cc1nc2ccc(-c3ccc4c(c3)CN(C(=O)N(C)CCc3ccccc3)CCO4)cc2[nH]1 [Compound 93, N-methyl-7-(2-methyl-1H-benzimidazol-6-yl)-N-(2-phenylethyl)-2,3-dihydro-1,4-benzoxazepine-4(5H)-carboxamide]
3 | 75 to 200 | ≤ 50 | Cc1nc2ccc(-c3ccc4c(c3)CN(C(=O)N3CCC(=O)CC3c3cccc(F)c3)CCO4)cc2[nH]1 (stereo not drawn) [Compound 125, 2-(3-fluorophenyl)-1-{[7-(2-methyl-1H-benzimidazol-6-yl)-2,3-dihydro-1,4-benzoxazepin-4(5H)-yl]carbonyl}piperidin-4-one]
4 | 200 to 500 | 250 to 700 | Cc1nc2ccc(-c3ccc4c(c3)CN(C(=O)N3CC5CN(c6ccccc6)CC5C3)CCO4)cc2[nH]1 (stereo not drawn) [Compound 110, 7-(2-methyl-1H-benzimidazol-6-yl)-4-[(5-phenylhexahydropyrrolo[3,4-c]pyrrol-2(1H)-yl)carbonyl]-2,3,4,5-tetrahydro-1,4-benzoxazepine]
5 | 500 to 1000 | 250 to 700 | CC(=O)Nc1nc2ccc(-c3ccc4c(c3)CN(C(=O)N3CCC(CF)CC3)CCO4)cc2[nH]1 [Compound 50, N-[5-(4-{[4-(fluoromethyl)piperidin-1-yl]carbonyl}-2,3,4,5-tetrahydro-1,4-benzoxazepin-7-yl)-1H-benzimidazol-2-yl]acetamide]
6 | 75 to 200 | ≤ 50 | Cc1nc2ccc(-c3ccc4c(c3)CN(C(=O)N3CCCCC3c3cc(F)c(F)c(F)c3)CCO4)cc2[nH]1 (stereo not drawn) [Compound 129, 7-(2-methyl-1H-benzimidazol-6-yl)-4-{[2-(3,4,5-trifluorophenyl)piperidin-1-yl]carbonyl}-2,3,4,5-tetrahydro-1,4-benzoxazepine]
7 | ≤ 75 | ≤ 50 | CCNc1nc2ccc(-c3ccc4c(c3)CN(C(=O)N3CCC(=O)CC3c3cccc(F)c3)CCO4)cc2[nH]1 (stereo not drawn) [Compound 30, 1-({7-[2-(ethylamino)-1H-benzimidazol-6-yl]-2,3-dihydro-1,4-benzoxazepin-4(5H)-yl}carbonyl)-2-(3-fluorophenyl)piperidin-4-one]
8 | 500 to 1000 | 700 to 2600 | Cc1nc2ccc(-c3ccc4c(c3)CN(C(=O)N3CCCC3C)CCO4)cc2[nH]1 (stereo not drawn) [Compound 99, 7-(2-methyl-1H-benzimidazol-6-yl)-4-[(2-methylpyrrolidin-1-yl)carbonyl]-2,3,4,5-tetrahydro-1,4-benzoxazepine]
9 | 200 to 500 | 50 to 250 | COC(=O)Nc1nc2ncc(-c3ccc4c(c3)CN(C(=O)N3CCC(C#N)CC3)CCO4)cc2[nH]1 [Compound 40, methyl (6-{4-[(4-cyanopiperidin-1-yl)carbonyl]-2,3,4,5-tetrahydro-1,4-benzoxazepin-7-yl}-1H-imidazo[4,5-b]pyridin-2-yl)carbamate]
10 | 1000 to 3000 | 250 to 700 | CCOC(=O)[C@H]1CCCN(C(=O)N2CCOc3ccc(-c4ccc5nc(C)[nH]c5c4)cc3C2)C1 [Compound 74, ethyl (3S)-1-{[7-(2-methyl-1H-benzimidazol-6-yl)-2,3-dihydro-1,4-benzoxazepin-4(5H)-yl]carbonyl}piperidine-3-carboxylate]
11 | ≤ 75 | ≤ 50 | COC(=O)Nc1nc2ccc(-c3ccc4c(c3)CN(C(=O)N3[C@@H]5CC[C@H]3C[C@](O)(C(F)(F)F)C5)CCO4)cc2[nH]1 [Compound 20, methyl [6-(4-{[3-(endo)-hydroxy-3-(trifluoromethyl)-8-azabicyclo[3.2.1]oct-8-yl]carbonyl}-2,3,4,5-tetrahydro-1,4-benzoxazepin-7-yl)-1H-benzimidazol-2-yl]carbamate]
12 | 500 to 1000 | 50 to 250 | O=C1CCN(C(=O)N2CCOc3ccc(-c4ccc(C(=O)NCC(F)F)cc4)cc3C2)C(c2cccc(F)c2)C1 (stereo not drawn) [Compound 64, N-(2,2-difluoroethyl)-4-(4-{[2-(3-fluorophenyl)-4-oxopiperidin-1-yl]carbonyl}-2,3,4,5-tetrahydro-1,4-benzoxazepin-7-yl)benzamide]
13 | ≤ 75 | ≤ 50 | O=C1CCN(C(=O)N2CCOc3ccc(-c4ccc(-c5ncc[nH]5)cc4)cc3C2)[C@H](c2ccc(F)cc2)C1 [Compound 57, (2S)-2-(4-fluorophenyl)-1-({7-[4-(1H-imidazol-2-yl)phenyl]-2,3-dihydro-1,4-benzoxazepin-4(5H)-yl}carbonyl)piperidin-4-one]
14 | 200 to 500 | ≤ 50 | O=C1CCN(C(=O)N2CCOc3ccc(-c4ccc5[nH]c(NCC(F)(F)F)nc5c4)cc3C2)C(c2cccc(F)c2)C1 (stereo not drawn) [Compound 31, 2-(3-fluorophenyl)-1-{[7-{2-[(2,2,2-trifluoroethyl)amino]-1H-benzimidazol-5-yl}-2,3-dihydro-1,4-benzoxazepin-4(5H)-yl]carbonyl}piperidin-4-one]
15 | ≤ 75 | ≤ 50 | Cc1nc2ccc(-c3ccc4c(c3)CN(C(=O)N3CCCCC3c3ccc(F)cc3)CCO4)cc2[nH]1 (stereo not drawn) [Compound 73, 4-{[2-(4-fluorophenyl)piperidin-1-yl]carbonyl}-7-(2-methyl-1H-benzimidazol-6-yl)-2,3,4,5-tetrahydro-1,4-benzoxazepine]
16 | 75 to 200 | 50 to 250 | COC(=O)Nc1nc2ccc(-c3ccc4c(c3)CN(C(=O)N3CCC(CF)CC3)CCO4)cc2[nH]1 [Compound 13, methyl [6-(4-{[4-(fluoromethyl)piperidin-1-yl]carbonyl}-2,3,4,5-tetrahydro-1,4-benzoxazepin-7-yl)-1H-benzimidazol-2-yl]carbamate]
17 | 1000 to 3000 | 50 to 250 | Cc1nc2ccc(-c3ccc4c(c3)CN(C(=O)N3CCC(Oc5ccc(Cl)cc5)CC3)CCO4)cc2[nH]1 [Compound 70, 4-({4-[(4-chlorophenyl)oxy]piperidin-1-yl}carbonyl)-7-(2-methyl-1H-benzimidazol-6-yl)-2,3,4,5-tetrahydro-1,4-benzoxazepine]
18 | 200 to 500 | 250 to 700 | Cc1nc2ccc(-c3ccc4c(c3)CN(C(=O)N3CCCCC3)CCO4)cc2[nH]1 [Compound 86, 7-(2-methyl-1H-benzimidazol-6-yl)-4-(piperidin-1-ylcarbonyl)-2,3,4,5-tetrahydro-1,4-benzoxazepine]
19 | 500 to 1000 | 50 to 250 | Cc1nc2ccc(-c3ccc4c(c3)CN(C(=O)N3CCCC3c3ccccc3)CCO4)cc2[nH]1 (stereo not drawn) [Compound 95, 7-(2-methyl-1H-benzimidazol-6-yl)-4-[(2-phenylpyrrolidin-1-yl)carbonyl]-2,3,4,5-tetrahydro-1,4-benzoxazepine]
20 | 1000 to 3000 | 50 to 250 | Cc1nc2ccc(-c3ccc4c(c3)CN(C(=O)N(Cc3ccccc3)C(C)C)CCO4)cc2[nH]1 [Compound 103, 7-(2-methyl-1H-benzimidazol-6-yl)-N-(1-methylethyl)-N-(phenylmethyl)-2,3-dihydro-1,4-benzoxazepine-4(5H)-carboxamide]
21 | 1000 to 3000 | 250 to 700 | CC1CCN(C(=O)N2CCOc3ccc(-c4cncs4)cc3C2)CC1 [Compound 8, 4-[(4-methylpiperidin-1-yl)carbonyl]-7-(1,3-thiazol-5-yl)-2,3,4,5-tetrahydro-1,4-benzoxazepine]
22 | 500 to 1000 | 250 to 700 | Cc1nc2ccc(-c3ccc4c(c3)CN(C(=O)N3CCC(Cc5ccccc5)C3)CCO4)cc2[nH]1 (stereo not drawn) [Compound 100, 7-(2-methyl-1H-benzimidazol-6-yl)-4-{[3-(phenylmethyl)pyrrolidin-1-yl]carbonyl}-2,3,4,5-tetrahydro-1,4-benzoxazepine]
23 | 75 to 200 | 700 to 2600 | COC(=O)Nc1nc2cc(-c3ccc4c(c3)CN(C(=O)N3CC[C@H](O)C[C@@H]3c3ccc(F)cc3)CCO4)ccc2[nH]1 (racemic) [Compound 17, (±)-methyl [5-(4-{[(2R,4S)-2-(4-fluorophenyl)-4-hydroxypiperidin-1-yl]carbonyl}-2,3,4,5-tetrahydro-1,4-benzoxazepin-7-yl)-1H-benzimidazol-2-yl]carbamate]
24 | 75 to 200 | ≤ 50 | Cc1nc2ccc(-c3ccc4c(c3)CN(C(=O)N3CCCCC3c3cccc(Cl)c3)CCO4)cc2[nH]1 (stereo not drawn) [Compound 124, 4-{[2-(3-chlorophenyl)piperidin-1-yl]carbonyl}-7-(2-methyl-1H-benzimidazol-6-yl)-2,3,4,5-tetrahydro-1,4-benzoxazepine]
25 | ≤ 75 | 50 to 250 | COC(=O)Nc1nc2ccc(-c3ccc4c(c3)CN(C(=O)N3CCC(=O)CC3c3ccc(F)cc3)CCO4)cc2[nH]1 (stereo not drawn) [Compound 14, methyl [6-(4-{[2-(4-fluorophenyl)-4-oxopiperidin-1-yl]carbonyl}-2,3,4,5-tetrahydro-1,4-benzoxazepin-7-yl)-1H-benzimidazol-2-yl]carbamate]
26 | 200 to 500 | 50 to 250 | Cc1nc2ccc(-c3ccc4c(c3)CN(C(=O)N3CC=C(c5ccccc5)CC3)CCO4)cc2[nH]1 [Compound 157, 7-(2-methyl-1H-benzimidazol-6-yl)-4-[(4-phenyl-3,6-dihydropyridin-1(2H)-yl)carbonyl]-2,3,4,5-tetrahydro-1,4-benzoxazepine]
27 | ≤ 75 | ≤ 50 | CC1CCN(C(=O)N2CCOc3ccc(-c4ccc(-c5ncc[nH]5)cc4)cc3C2)CC1 [Compound 60, 7-[4-(1H-imidazol-2-yl)phenyl]-4-[(4-methylpiperidin-1-yl)carbonyl]-2,3,4,5-tetrahydro-1,4-benzoxazepine]
